From PubChem BioAssay AID1963597 (National Center for Advancing Translational Sciences (NCATS), 2024) come the findings set out here.

The test system of this series is human liver microsomes, metabolic stability half-life. In words: NCATS Human Liver Microsomal (HLM) Stability Profiling. Particulars: higher = more stable; screened at 1 µM (by protocol). The method, boiled down:
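Substrate depletion (in vitro t1/2): 1 µM compound with 0.5 mg/mL microsomes and NADPH regenerating system, phosphate buffer pH 7.4, 37 °C. Sampled at 0, 5, 10, 15, 30, 60 min into cold acetonitrile with albendazole internal standard for MS quantification.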
For the compound `O=C(c1cnn(-c2cccc(F)c2)c1-n1cccc1)N1CCN(c2ccccc2F)CC1`, the half-life was 9.4 min.
Take `COc1ccc(CCNc2ncnc3c2c(-c2ccccc2)cn3-c2cccc(Cl)c2)cc1OC`: the half-life is 3.59 min.
Then `Oc1ccc(-c2cnc3ccc(NCc4ccco4)nn23)cc1`, with 9.45 min; and `CC(C)(C)c1ccc(S(=O)(=O)c2cnc(SCC(=O)Nc3ccc(F)c(Cl)c3)[nH]c2=O)cc1`, with 73.1 min; and `COc1cc(C)c(/C=C/C(C)=C/C=C/C(C)=C/C(=O)O)c(C)c1C`, with 32 min.
With `Cc1ccccc1C(=O)N1CCC(C(=O)N2CCC(N3Cc4ccccc4C3=O)CC2)CC1`, the half-life is 93.1 min.
Then `O=C(CC1N=C2c3ccccc3N=C(SCc3ccc(Cl)cc3)N2C1=O)NCCc1ccccc1` (stereo not drawn), with 4.19 min.
Turning to `CC(C)C[C@H]1C(=O)N2CCC[C@H]2[C@]2(O)O[C@](NC(=O)[C@@H]3C=C4c5cccc6[nH]c(Br)c(c56)CC4N(C)C3)(C(C)C)C(=O)N12` (stereo partly drawn), the half-life worked out at 0.89 min.
Then `COc1cc(-c2nn(C3CCC(N4CCN(C(C)=O)CC4)CC3)c3ncnc(N)c23)ccc1NC(=O)c1cc2ccccc2n1C` (stereo not drawn), with over 120 min; and `O=C(CCCN1CCC(n2c(=O)[nH]c3ccccc32)CC1)c1ccc(F)cc1`, with over 120 min.
Then `NC(=Nc1ccccc1)Nc1ccccc1`, with over 120 min; and `CCN1CCN(C(=O)Cc2cccn2-c2ccc(F)cc2)CC1`, with 114 min; and `CC(CCc1ccc(O)cc1)NCC(O)c1ccc(O)cc1` (stereo not drawn), with over 120 min.
Then `O=C1c2ccccc2C(=O)C1C(=O)C(c1ccccc1)c1ccccc1`, with over 120 min.
With `CN1CCCC(CC2c3ccccc3Sc3ccccc32)C1` (stereo not drawn), the half-life came to 48.7 min.
Then `NS(=O)(=O)c1cc2c(cc1Cl)NC(CSCc1ccccc1)=NS2(=O)=O`, with 29.2 min; and `CC1CCN(CC(=O)N2CCCc3c2c(=O)oc2ccc(OCc4ccccc4)cc32)CC1`, with 1.52 min.
In turn, `Clc1ccc(COC(Cn2ccnc2)c2ccc(Cl)cc2Cl)cc1` (stereo not drawn) had a half-life of 89.8 min.
The compound `COc1cc(C(C)=O)ccc1OCCCN1CCC(c2noc3cc(F)ccc23)CC1` returned a half-life of 25.1 min.
Compound `CC(=O)NC[C@H]1CN(c2ccc(N3CCN(C(=O)CO)CC3)c(F)c2)C(=O)O1` displayed a half-life of over 120 min.
On to `COCC(=O)NCC=Cc1ccc2ncnc(Nc3ccc(Oc4ccc(C)nc4)c(C)c3)c2c1`, for which the half-life amounted to 22.7 min.
`CCOC(=O)C(c1c(O)c2ccccc2oc1=O)c1c(O)c2ccccc2oc1=O`: the half-life worked out at 10.3 min.
Then `COc1ccc(CCC(C)=O)cc1`, with over 120 min; and `C/C=C(/C(=C/C)c1ccc(OC(C)=O)cc1)c1ccc(OC(C)=O)cc1`, with over 120 min; and `CN(C)CCN1C(=O)c2ccccc2N(C)c2ccccc21`, with over 120 min.
Then `CC(Cc1ccc2c(c1)OCO2)NCC(O)c1ccc(O)c(O)c1` (stereo not drawn), with 18.6 min.
Then `O=C(O)c1ccc2[nH]cc(CCCCN3CC=C(c4ccccc4)CC3)c2c1`, with over 120 min; and `COc1ccc(C(=O)NC(c2ccccc2Cl)c2cc(Cl)c3cccnc3c2O)cc1` (stereo not drawn), with 37.1 min; and `CCOCCCNC(=O)CCC(=O)NNc1nc2ccccc2c2nc(-c3ccccc3)nn12`, with 88 min.
As to `O=c1oc2ccccc2c(O)c1Cc1c(O)c2ccccc2oc1=O`, the half-life was 33.3 min.
Then `CCN(Cc1ccncc1)C(=O)[C@@H](CO)c1ccccc1`, with over 120 min; and `Cc1c(C)n(Cc2ccc(-c3ccccc3C(=O)O)cc2)c2ccc(C(=O)N[C@@H](C)c3ccc([N+](=O)[O-])cc3)cc12`, with over 120 min; and `Oc1cccc(O)c1O`, with over 120 min.
As for `Cc1cnc(NC(=O)c2cc(S(=O)(=O)N(C)C)ccc2N2CCCC2)s1`, the half-life was 24.3 min.
Take `Cc1ccc(Cl)cc1N1CCN(C(=O)c2cn(C3CCCCC3)c(=O)c3c2c2ccccc2n3C)CC1`: the half-life was found to be 0.92 min.
Then `CC1(C)O[C@H]2CC(=O)OC[C@]23[C@H]2CC[C@@]4(C)[C@H](c5ccoc5)OC(=O)[C@H]5O[C@]54[C@]2(C)C(=O)C[C@@H]13`, with 13.4 min.
As for `Cc1cc(C)cc(NC(=O)Cc2ccc(OC(C)(C)C(=O)O)cc2)c1`, the half-life was over 120 min.
Then `CC(C)CCC(=O)CC1c2ccccc2C(=O)N1c1ccc2ccc(Cl)nc2n1` (stereo not drawn), with 7.76 min; and `O=C(CCNc1c(-c2ccccc2)nc2cnccn12)N1CCCC1`, with 7.99 min; and `c1ccc(-c2cnc(Nc3ccc(OCCN4CCCC4)cc3)s2)cc1`, with 103 min.
In turn, `CC1(C)O[C@@H]2C[C@H]3[C@@H]4CCC5=CC(=O)C=C[C@]5(C)[C@@]4(F)[C@@H](O)C[C@]3(C)[C@]2(C(=O)CO)O1` displayed a half-life of 27.3 min.
Take `COc1ccncc1C(=O)NC(=O)Nc1ccc(-c2ccccc2)c(C(F)(F)F)c1`: the half-life is over 120 min.
On to `CCCCN(CCCC)CCC(O)c1cc2c(Cl)cc(Cl)cc2c2cc(C(F)(F)F)ccc12` (stereo not drawn), for which the half-life turned out to be 29.5 min.
Then `CC1=CC(=O)c2ccccc2C1=O`, with 11.4 min.
In turn, `Cc1ncc(CSSCc2cnc(C)c(O)c2CO)c(CO)c1O` yielded a half-life of over 120 min.
Then `CC1CCN(C(c2ccc(F)cc2)c2ccc(C(C)C(=O)O)cc2-c2ccc(C(F)(F)F)cc2)CC1` (stereo not drawn), with 115 min.
Then `C[C@H](N)C(=O)N1CCC(n2nccc2NC(=O)Nc2ccccc2Cl)CC1`, with over 120 min; and `CCOC(=O)c1ccc(OCCN2C[C@H](O)[C@@H](O)[C@H](O)[C@H]2CO)cc1`, with over 120 min; and `C#C[C@]1(O)CC[C@H]2[C@@H]3CCC4=CC(=O)CCC4=C3C=C[C@@]21CC`, with 38.2 min.
Then `Oc1c(Cl)cc(Cl)c2cccnc12`, with 25.2 min; and `CC1=C(c2ccc(NC(=O)c3c(F)cccc3F)cc2)CN(c2nccs2)CC1`, with 38.9 min; and `CCC[C@H](N[C@@H](C)C(=O)N1[C@H](C(=O)O)C[C@@H]2CCCC[C@@H]21)C(=O)OCC`, with over 120 min.
`Cc1ccc(S(=O)(=O)NC(=O)NN2CCCCCC2)cc1` yielded a half-life of over 120 min.
`Cn1nc(C(C)(C)C)cc1C(=O)NC(Cc1cccc(Cl)c1)C(=O)NCC#N` (stereo not drawn) had a half-life of 67.4 min.
Then `CN(C)[S+](=O)([O-])c1ccc([S+](=O)([O-])N(Cc2ccccc2)Cc2ccccn2)cc1`, with 4.28 min; and `CCN1CCN(C(=O)c2cc(-c3ccc(F)cc3)nc3c2cnn3C)CC1`, with 99.2 min; and `CCCCNc1ncc2c(-c3ccc(F)cc3)nn(CC3CCC(N)CC3)c2n1` (stereo not drawn), with over 120 min.
The compound `COc1cccc(OC)c1-c1nc(C(=O)N[C@@H](CC(C)C)C(=O)O)cn1-c1ccnc2cc(Cl)ccc12` displayed a half-life of over 120 min.
Then `C=Cc1ccc(Cn2c(SCC(=O)N3CCN(c4ccc(F)cc4)CC3)nc3ccccc32)cc1`, with 2.42 min; and `c1cc(-c2cc(C3CCNCC3)[nH]n2)ccn1`, with 72.6 min; and `CCC(C)(C)c1ccc(CC(C)CN2C[C@@H](C)O[C@@H](C)C2)cc1` (stereo partly drawn), with 12.2 min.
Consider `COC(=O)/C=C(\C)OP(=O)(OC)OC`, for which the half-life stood at 19.9 min.
Then `CCOC(=O)c1ccc(O)cc1`, with 61 min; and `C[C@@H](N)[C@@H](O)c1ccccc1`, with 92.4 min.
Then `O=c1c(N2CCN(c3cccc(Cl)c3)CC2)csc2ccc(Cl)cc12`, with 12.8 min.
In turn, `CCOc1ccc(-n2c(C(C)N(Cc3cccnc3)C(=O)Cc3ccc(F)c(C(F)(F)F)c3)nc3ncccc3c2=O)cc1` (stereo not drawn) had a half-life of 4.89 min.
Then `CC(=O)N1CCN([C@H]2CCN(C(=O)N(C)[C@H](C)c3cc(C(F)(F)F)cc(C(F)(F)F)c3)[C@@H](c3ccc(F)cc3C)C2)CC1`, with 12.8 min.
Then `CCOc1cc(CNC(=O)c2ccc(C)c(NC(=O)c3nsc4ccccc34)c2)ccc1OC`, with 7.12 min; and `Cc1ccc(Cl)c(OCC(O)CNC(C)(C)C)c1` (stereo not drawn), with 1.53 min.
`CN(C(=O)C(c1ccccc1)c1ccccc1)[C@H](CN1CC[C@H](O)C1)c1ccccc1` had a half-life of 9.29 min.
Then `CC(C)(N)c1ccc(-c2nc3ccccc3nc2-c2ccccc2)cc1`, with over 120 min; and `COc1ccc(C(=O)n2c(C)c(Cc3cccc(O[C@@H](C)C(=O)O)c3)c3cc(OC(F)(F)F)ccc32)cc1`, with over 120 min.
Then `COc1ccc(Cn2c(SCc3ccc(C(=O)NC4CCCC4)cc3)nc3ccncc32)cc1`, with 14.5 min; and `COc1ccc2c(c1)CCCC2=O`, with 17.6 min; and `Fc1ccc(C2CCNC[C@H]2COc2ccc3c(c2)OCO3)cc1` (stereo partly drawn), with 28.9 min.
Then `O=c1[nH]c(=O)n([C@H]2C[C@H](O)[C@@H](CO)O2)cc1C(F)(F)F`, with over 120 min; and `Nc1ccc(C(=O)Nc2cccc(-c3nc(N4CCOCC4)c4oc5ncccc5c4n3)c2)cn1`, with 56.2 min; and `COc1ccc(-c2oc3ncn4nc(COc5c(C)cccc5C)nc4c3c2-c2ccc(OC)cc2)cc1`, with 13.2 min.
The compound `Cc1nn2c(c1-c1ccccc1Oc1ccccc1)N(Cc1cccc(C#N)c1)CCC2` registered a half-life of 0.77 min.
Then `CC(C)(O)c1ccccc1CC[C@H](SCC1(CC(=O)O)CC1)c1cccc(/C=C/c2ccc3ccc(Cl)cc3n2)c1`, with 36.5 min; and `CCc1ccc(CNC(=O)c2sc3ncccc3c2-n2c(C)ccc2C)cc1`, with 1.9 min.
Then `CCOc1ccc(-n2c([C@@H](C)N(Cc3cccnc3)C(=O)Cc3ccc(OC(F)(F)F)cc3)nc3ncccc3c2=O)cc1`, with 8.23 min.
With `CC(C)=CCC1C(=O)N(c2ccccc2)N(c2ccccc2)C1=O`, the half-life was over 120 min.
On to `Cc1nn(C)c2c1C(c1ccc(C(F)(F)F)cc1)C(C#N)=C(N)O2` (stereo not drawn), for which the half-life was 11 min.
For `COc1ccc(CN2CCN(C(c3ccc(F)cc3)c3ccc(F)cc3)CC2)c(OC)c1OC`, the half-life is 13.1 min.
In the case of `CN(C)c1cc2c(cc1Sc1nc3c(N)nccc3n1CCNCC(C)(C)C)OCO2`, the half-life is 3.18 min.
Then `Clc1ccc(N2CCN(c3ncnc4c3nc3n4CCCC3)CC2)cc1`, with 37.9 min.
Then `CNS(=O)(=O)CCc1ccc2[nH]cc(C3CCN(C)CC3)c2c1`, with over 120 min.
